# Reference: PubChem BioAssay AID1963830 (Molecular Pharmacology Branch, DTP, NCI, 2024)
# Test system: 922993-354-T-J3-PDC complex spheroid viability
# Test: Anticancer human tumor 922993-354-T-J3-PDC patient-derived endometrial carcinoma cell line growth inhibition [POLQ]
# Conditions: for IC50: curve of first compound; for viability, T/C: stronger effect = lower value
# How it was run: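 Growth inhibition in 3D: complex spheroids (tumor PDC, HUVEC, MSC) treated with POLQ inhibitor combinations; where Cmax unknown, highest tested concentration 10 microM, except SN-38 at 1 microM.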
# [1] = second compound 0.0316 µM, first compound 0.0316 µM
# [2] = second compound 0.0316 µM, first compound 0.1 µM
# [3] = second compound 0.0316 µM, first compound 0.316 µM
# [4] = second compound 0.0316 µM, first compound 1 µM
# [5] = second compound 0.0316 µM, first compound 3.16 µM
# [6] = second compound 0.0316 µM, first compound 10 µM
# [7] = second compound 0.1 µM, first compound 0.0316 µM
# [8] = second compound 0.1 µM, first compound 0.1 µM
# [9] = second compound 0.1 µM, first compound 0.316 µM
# [10] = second compound 0.1 µM, first compound 1 µM
# [11] = second compound 0.1 µM, first compound 3.16 µM
# [12] = second compound 0.1 µM, first compound 10 µM
# [13] = second compound 0.316 µM, first compound 0.0316 µM
# [14] = second compound 0.316 µM, first compound 0.1 µM
# [15] = second compound 0.316 µM, first compound 0.316 µM
# [16] = second compound 0.316 µM, first compound 1 µM
# [17] = second compound 0.316 µM, first compound 3.16 µM
# [18] = second compound 0.316 µM, first compound 10 µM
# [19] = second compound 1 µM, first compound 0.0316 µM
# [20] = second compound 1 µM, first compound 0.1 µM
# [21] = second compound 1 µM, first compound 0.316 µM
# [22] = second compound 1 µM, first compound 1 µM
# [23] = second compound 1 µM, first compound 3.16 µM
# [24] = second compound 1 µM, first compound 10 µM
# [25] = second compound 3.16 µM, first compound 0.0316 µM
# [26] = second compound 3.16 µM, first compound 0.1 µM
# [27] = second compound 3.16 µM, first compound 0.316 µM
# [28] = second compound 3.16 µM, first compound 1 µM
# [29] = second compound 3.16 µM, first compound 3.16 µM
# [30] = second compound 3.16 µM, first compound 10 µM
# [31] = second compound 10 µM, first compound 0.0316 µM
# [32] = second compound 10 µM, first compound 0.1 µM
# [33] = second compound 10 µM, first compound 0.316 µM
# [34] = second compound 10 µM, first compound 1 µM
# [35] = second compound 10 µM, first compound 3.16 µM
# [36] = second compound 10 µM, first compound 10 µM
# 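Further: spheroids exposed to the agents for one week.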
# 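Wherever viability, T/C is given: 100% = DMSO vehicle control wells.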
structure (smiles),measurement,setting,value
CC1COCCN1c1cc(C2(O)CC3CCC(C2)O3)c2cnn(-c3ccn[nH]3)c2n1 (stereo unspecified) + Cc1cccc(N(C)C(=O)C2C(O)CCN2c2nc(C)cc(C(F)(F)F)c2C#N)c1,IC50,second compound 0.0316 µM,439 nM
same,IC50,second compound 0.1 µM,457 nM
same,IC50,second compound 0.316 µM,580 nM
same,IC50,second compound 1 µM,510 nM
same,IC50,second compound 3.16 µM,390 nM
same,IC50,second compound 10 µM,166 nM
same,"viability, T/C",[1],104%
same,"viability, T/C",[2],77%
same,"viability, T/C",[3],61.6%
same,"viability, T/C",[4],33.6%
same,"viability, T/C",[5],10.6%
same,"viability, T/C",[6],8.67%
same,"viability, T/C",[7],109%
same,"viability, T/C",[8],93.7%
same,"viability, T/C",[9],63.9%
same,"viability, T/C",[10],23.2%
same,"viability, T/C",[11],10.3%
same,"viability, T/C",[12],10.8%
same,"viability, T/C",[13],110%
same,"viability, T/C",[14],101%
same,"viability, T/C",[15],75.5%
same,"viability, T/C",[16],27.5%
same,"viability, T/C",[17],11.6%
same,"viability, T/C",[18],10.9%
same,"viability, T/C",[19],97.3%
same,"viability, T/C",[20],89.5%
same,"viability, T/C",[21],67.9%
same,"viability, T/C",[22],25.8%
same,"viability, T/C",[23],9.46%
same,"viability, T/C",[24],10.4%
same,"viability, T/C",[25],101%
same,"viability, T/C",[26],89.2%
same,"viability, T/C",[27],57.1%
same,"viability, T/C",[28],20.7%
same,"viability, T/C",[29],8.74%
same,"viability, T/C",[30],9.75%
same,"viability, T/C",[31],101%
same,"viability, T/C",[32],64.6%
same,"viability, T/C",[33],32.5%
same,"viability, T/C",[34],10.3%
same,"viability, T/C",[35],8.71%
same,"viability, T/C",[36],9.69%
CC[C@@]1(O)C(=O)OCc2c1cc1n(c2=O)Cc2cc3c(CN(C)C)c(O)ccc3nc2-1 + Nc1ccc(C#CCN(C(=O)Cc2ncc(C(F)(F)F)cc2C(F)(F)F)c2ccc(F)cc2)nn1,IC50,second compound 0.0316 µM,> 100 nM
same,IC50,second compound 0.1 µM,> 100 nM
same,IC50,second compound 0.316 µM,> 100 nM
same,IC50,second compound 1 µM,> 100 nM
same,IC50,second compound 3.16 µM,> 100 nM
same,IC50,second compound 10 µM,54.7 nM
same,"viability, T/C","second compound 0.0316 µM, first compound 0.000316 µM",103%
same,"viability, T/C","second compound 0.0316 µM, first compound 0.001 µM",105%
same,"viability, T/C","second compound 0.0316 µM, first compound 0.00316 µM",99.4%
same,"viability, T/C","second compound 0.0316 µM, first compound 0.01 µM",101%
same,"viability, T/C",[1],100%
same,"viability, T/C",[2],89.5%
same,"viability, T/C","second compound 0.1 µM, first compound 0.000316 µM",102%
same,"viability, T/C","second compound 0.1 µM, first compound 0.001 µM",105%
same,"viability, T/C","second compound 0.1 µM, first compound 0.00316 µM",100%
same,"viability, T/C","second compound 0.1 µM, first compound 0.01 µM",102%
same,"viability, T/C",[7],102%
same,"viability, T/C",[8],87.2%
same,"viability, T/C","second compound 0.316 µM, first compound 0.000316 µM",105%
same,"viability, T/C","second compound 0.316 µM, first compound 0.001 µM",98.1%
same,"viability, T/C","second compound 0.316 µM, first compound 0.00316 µM",103%
same,"viability, T/C","second compound 0.316 µM, first compound 0.01 µM",98.9%
same,"viability, T/C",[13],103%
same,"viability, T/C",[14],81.1%
same,"viability, T/C","second compound 1 µM, first compound 0.000316 µM",105%
same,"viability, T/C","second compound 1 µM, first compound 0.001 µM",103%
same,"viability, T/C","second compound 1 µM, first compound 0.00316 µM",100%
same,"viability, T/C","second compound 1 µM, first compound 0.01 µM",99.2%
same,"viability, T/C",[19],96%
same,"viability, T/C",[20],82.2%
same,"viability, T/C","second compound 3.16 µM, first compound 0.000316 µM",101%
same,"viability, T/C","second compound 3.16 µM, first compound 0.001 µM",102%
same,"viability, T/C","second compound 3.16 µM, first compound 0.00316 µM",103%
same,"viability, T/C","second compound 3.16 µM, first compound 0.01 µM",94.5%
same,"viability, T/C",[25],92.9%
same,"viability, T/C",[26],72.9%
same,"viability, T/C","second compound 10 µM, first compound 0.000316 µM",100%
same,"viability, T/C","second compound 10 µM, first compound 0.001 µM",91.3%
same,"viability, T/C","second compound 10 µM, first compound 0.00316 µM",97%
same,"viability, T/C","second compound 10 µM, first compound 0.01 µM",92.9%
same,"viability, T/C",[31],71.8%
same,"viability, T/C",[32],25.9%
COc1cc(C2c3cc4c(cc3C(OC3OC5COC(C)OC5C(O)C3O)C3COC(=O)C23)OCO4)cc(OC)c1O (stereo unspecified) + Nc1ccc(C#CCN(C(=O)Cc2ncc(C(F)(F)F)cc2C(F)(F)F)c2ccc(F)cc2)nn1,IC50,second compound 0.0316 µM,> 10000 nM
same,IC50,second compound 0.1 µM,> 10000 nM
same,IC50,second compound 0.316 µM,> 10000 nM
same,IC50,second compound 1 µM,> 10000 nM
same,IC50,second compound 3.16 µM,> 10000 nM
same,IC50,second compound 10 µM,4390 nM
same,"viability, T/C",[1],108%
same,"viability, T/C",[2],106%
same,"viability, T/C",[3],101%
same,"viability, T/C",[4],105%
same,"viability, T/C",[5],90.9%
same,"viability, T/C",[6],81%
same,"viability, T/C",[7],103%
same,"viability, T/C",[8],102%
same,"viability, T/C",[9],104%
same,"viability, T/C",[10],98.2%
same,"viability, T/C",[11],97.4%
same,"viability, T/C",[12],71.4%
same,"viability, T/C",[13],101%
same,"viability, T/C",[14],105%
same,"viability, T/C",[15],100%
same,"viability, T/C",[16],104%
same,"viability, T/C",[17],94.2%
same,"viability, T/C",[18],76%
same,"viability, T/C",[19],105%
same,"viability, T/C",[20],103%
same,"viability, T/C",[21],103%
same,"viability, T/C",[22],100%
same,"viability, T/C",[23],96.1%
same,"viability, T/C",[24],77%
same,"viability, T/C",[25],103%
same,"viability, T/C",[26],97.2%
same,"viability, T/C",[27],98%
same,"viability, T/C",[28],95.6%
same,"viability, T/C",[29],88%
same,"viability, T/C",[30],67.6%
same,"viability, T/C",[31],100%
same,"viability, T/C",[32],90.5%
same,"viability, T/C",[33],91.2%
same,"viability, T/C",[34],75.1%
same,"viability, T/C",[35],62.2%
same,"viability, T/C",[36],25.3%
